Earlier results in patent publication US7618965B2, “(Arylamidoanilino)nitroethylene compounds” (OSI Pharmaceuticals, Inc., priority 2004, dated 2009).
Counter-ions that a name gives are not always drawn.

Legend:
[1] = tested on: MO7e human leukemia cells
[2] = tested on: MO7e human leukemia cells; remark: listed apart in the source

## Cc1ccc(NC(=O)c2ccc(CN3CCN(C)CC3)cc2)cc1Nc1nccc(-c2cccnc2)n1 [Gleevec, imatinib mesylate]
[1]
  Kit ligand-stimulated growth of MO7e cells: inhibited
[2]
  GM-CSF stimulated growth of MO7e cells: not affected
